US10844081B2, “Protected organoboronic acids with tunable reactivity, and methods of use thereof” (The Board of Trustees of the University of Illinois, priority 2015, dated 2020)
Blank lines part the entries; values can stand above or below the molecule they belong to.

What was measured:
[1] = Solubility of boronates in room temperature THF (NMR vs internal standard); format: physicochemical
Experimental: To determine the solubility of each boronate given in the following table, a concentrated solution was prepared by repeated addition to a small amount (˜200 μL) of room temperature THF in a 7-mL vial until solid no longer dissolved upon stirring. The vials were then allowed to stir at room temperature overnight. […] 100 μL of the mixture was then filtered and had solvent removed. The residue was then taken up in 500 μL DMSO-d6 containing 1,4-dimethoxybenzene (˜0.01 M) as an internal standard and transferred to an NMR tube. The concentrations of the solutions were then determined by integration relative to internal standard. In each case, the measurements are an average of two experiments.

[2] = Hydrolysis of MIDA boronate derivatives under slow release conditions (K3PO4, THF-d8/D2O, 60° C., 1H NMR); format: physicochemical; conditions: for krel, relative rate constant for hydrolysis with respect to MIDA (krel=1): 5:1 THF-d8:D2O, 7.5 eq. K3PO4, 60° C.; for boronate remaining: at 6 hours; for reduction in the rate of hydrolysis: relative to MIDA boronate
Experimental: Compounds 1-6 (FIG. 4A) were prepared and then characterized in terms of their rates of hydrolysis under defined conditions relative to MIDA compound 4. Reaction conditions were: 5:1 THF-d8:D2O, 0.07 M in boronate, 7.5 eq. K3PO4, 60° C. Reactions were stirred for 0.5 to 2.0 h before being cooled and diluted with DMSO-d6 containing 1,4-dimethoxybenzene as an internal standard. ^1H NMR was taken immediately to determine % boronate remaining. For compounds 1, 2, and 3, n=2 and the average between the two runs is represented in the figure.
To each of twelve 1 mL conical vials equipped with stirring vanes was added 100 μL (0.08 M, 0.008 mmol) of a THF-d8 solution of the indicated boronate, followed by 20 μL (3.0 M, 0.06 mmol, 7.5 eq.) of a D2O solution of K3PO4. Each vial was then capped, shaken briefly to mix, and then stirred in a 60° C. heat block at 800 RPM. At the indicated times, two vials were removed from the heat block, cooled briefly under a stream of air, and then had 680 μL DMSO-d6 containing 1,4-dimethoxybenzene (˜0.008 M) as an internal standard added. The vials were then again briefly capped, shaken to mix, and the solutions were then immediately transferred to NMR tubes and spectra were taken (16 scans, d1=10 s). Time points were taken at 0, 0.5, 1, 1.5, 2.0, 4.0, and 6.0 hours. The solutions for the 0 time points were made directly in the NMR tubes, shaken, and then had spectra obtained. The percentage boronate remaining was determined by average the integration of the aryl protons (which fully resolved from the corresponding aryl protons on the parent boronic acid) across the two runs, except in the case of octyl TIDA boronate, for which the terminal methyl group of the octyl chain was used. Relative rate constants were obtained by assuming pseudo-first order kinetics and plotting the natural log of percentage boronate remaining vs time (ie. ln([boronate]/[boronate]o) vs t) (FIG. 13).
Each time point represents the average of n=2 experiments, except in the case of the N-Cy and N-iPr MIDA, for which n=1.

[3] = slow release hydrolysis conditions

- solubility in THF (in words) [1]: completely soluble
- hydrolysis after 6 hours (in words) ([2]; after 6 hours, slow release hydrolysis conditions): no measurable hydrolysis
Molecule: Octyl TIDA Boronate [octylTIDA boronate]

- solubility in THF (in words) [1]: lack of solubility
Molecule: Cc1ccc([B-]23OC(=O)C(C)(C)[N+]2(C)C(C)(C)C(=O)O3)cc1 (stereo not shown) [p-tolylTIDA boronate, p-Tolyl TIDA Boronate]

- krel, relative rate constant for hydrolysis with respect to MIDA (krel=1) [2]: 0.08
- boronate remaining [2, 3]: ~80%
- rate of hydrolysis with added phase transfer catalyst (in words) ([2]; free dibutyl ligand or tetrabutylammonium bromide added): hydrolyzed faster than the lone boronate
- reduction in the rate of hydrolysis [2]: 12.5 fold
Molecule: p-Tolyl DimethylMIDA Boronate

- krel, relative rate constant for hydrolysis with respect to MIDA (krel=1) [2]: 0.12
Molecule: p-Tolyl DiethylMIDA Boronate

- solubility in THF [1]: 212 mM
Molecule: 5-Formyl-2-furanyl TIDA Boronate

- boronate remaining [2, 3]: about 25%
Molecule: p-Tolyl DibutylMIDA boronate [R=nBu]

Molecule: CN1CC(=O)OB(c2ccc(C=O)o2)OC(=O)C1 [5-Formyl-2-furyl MIDA boronate, reference compound]
- solubility in THF [1]: trace

- krel, relative rate constant for hydrolysis with respect to MIDA (krel=1) [2]: 0.092
- reduction in the rate of hydrolysis [2]: 10.9 fold
Molecule: p-Tolyl SchMIDA Boronate
